Results on 2 compounds are retold here after ChEMBL document CHEMBL1138478, “Application of a proteolysis/mass spectrometry method for investigating the effects of inhibitors on hydroxylase structure” (J Med Chem, 2009).

A short description of this assay: Inhibition of human recombinant PHD2 (181-426) expressed in Escherichia coli BL21 (DE3) by TR-FRET assay.

As usually defined, the IC50 is the concentration that inhibits the measured activity by half. Take `O=C(O)c1ccnc(C(=O)O)c1`: the IC50 stood at 1.91 µM.

With `O=C(O)/C=C/C(=O)O` [FUMARIC ACID], the IC50 came out at 19.1 µM.
